Laboratory results: BindingDB's records for doi:10.1016/j.ejmech.2020.112339 (China Pharmaceutical University, 2020)

Test: Inhibition of BTK in human TMD8 cells assessed as reduction in cell proliferation incubated for 24 hrs by CCK-8 assay

Structure (SMILES): C=CC(=O)Nc1cccc(Nc2ncnc(Nc3ccc(C(=O)N4CCCCC4)cc3)n2)c1
- IC50: 4.36 µM
